Test results reported in patent publication US7357914B2, “Use of metal chelates in human or animal feeding” (Agristudio S.R.L., priority 2002, dated 2008).
Values joined by “and” are separate entries in the source; they are usually repeats but may differ in a detail not shown here. Equal entries are not always repeated.

Legend:
[1] = water solubility of the isolated iron (II) chelate; format: physicochemical; details: pale yellow powder
Excerpt: After filtration and washing the chelated product is then dried so as to reduce the amount of absorbed water.

[2] = feeding test in weaned pigs, zinc source in food (growth, zinc retention, tissue minerals); format: in vivo; details: for Daily increase / Final living weight: about 27 days; for Final net weight: body weight without content of the digestive tube; for Diet: food intake, 50 ppm zinc from the source; for Daily net increase: net weight
Protocol: Two test groups of pigs (Control and Test) of 35 days of age and weaned at 19 days, were administered a food differing only in the zinc source. […] The two groups of animals were balanced by nest, living weight and sex and were fed for 27 days. Other 4 animals were immediately sacrificed and a sampling was made of them according to the following procedure. The two groups of animals were weighed before starting the test and after 27 days. At the end of the test the pigs were sacrificed and stomach, intestine, left kidney and liver were removed from every pig. Stomach and intestine were emptied and weighed again so as to obtain the net weight of said organs. A sample of kidney, liver and brain was taken and frozen. Stomach, intestine, left kidney and liver were then put together with the remaining carcass and homogenized with a mixer. A sample was then taken from the mass thus obtained and frozen. The samples were then dehydrated with a dehydrating device and underwent chemical analysis. The level of zinc, copper and iron were determined on the lyophilized samples by atomic absorption spectroscopy. The body levels of zinc were referred to the product. On the basis of the body's “net” weight (i.e. without the content of the digestive tube) and of its content of zinc at test beginning and end it was possible to determine also daily zinc retention.

[3] = feeding test in female Charolaise calves, zinc source in diet (zootechnical performance); format: in vivo
Protocol: Living weight at test beginning and end, dead weight and slaughtering yield were determined for each animal.

[4] = pigs, 50 ppm zinc from the source in food
[5] = single calves 1-6 of each group, Table 5, listed as TEST
[6] = pigs, lyophilized samples, atomic absorption

CSCCC(O)C(=O)[O-].CSCCC(O)C(=O)[O-].O.O.[Fe+2] (centres unmarked) [(CH3SCH2CH2CH(OH)COO)2Fe.2H2O]
water solubility [1]: little water soluble

CSCCC(O)C(=O)[O-].CSCCC(O)C(=O)[O-].O.O.[Zn+2] (centres unmarked) [zinc chelate, (CH3SCH2CH2CH(OH)COO)2Zn.2H2O]
Brain Copper content ([2]; pig, in vivo): 28.1
Brain Iron content ([2]; pig, in vivo): 100.9
Brain Zinc content ([2]; pig, in vivo): 53.9
Daily Zn retention ([2]; pig, in vivo): 5.40 mg
Kidney Copper content ([2]; pig, in vivo): 55.0
Kidney Iron content ([2]; pig, in vivo): 244
Kidney Zinc content ([2]; pig, in vivo): 97.5
Liver Copper content ([2]; pig, in vivo): 63.6 mg/kg
Liver Iron content ([2]; pig, in vivo): 240
Liver Zinc content ([2]; pig, in vivo): 292 mg/kg
Conversion index [2, 4]: 1.68
Daily increase [2, 4]: 327 g
Final living weight [2, 4]: 16.14 kg
Final net weight ([2]; pigs): 15.57 kg
Diet ([2]; pigs): 544 g
Daily net increase ([2]; pigs): 314 g
Final weight ([3]; calves, 90 days, 700 mg zinc daily, group value, Table 4, in kg): 652.
carcass weight ([3]; calves, 90 days, P<0.01): 377 kg
Daily increase ([3]; calves, 90 days, group value, Table 4): 1,039.
carcass weight ([3]; calves, 90 days, group value, Table 4, in kg): 377.
Final weight ([3]; calves, 90 days, p<0.05): 652 kg
daily weight increase ([3]; calves, 90 days, p<0.05): 1,039 g
yield ([3]; calves, slaughtering yield, p<0.01): 57.83%
Dead weight [3, 5]: 421 kg and 457 kg and 398 kg and 378 kg and 320 kg and 318 kg
Final weight [3, 5]: 724.61 kg and 789.29 kg and 686.21 kg and 653.98 kg and 557.49 kg and 548.28 kg
Total increase [3, 5]: 99.0 kg and 112.5 kg and 103.5 kg and 90.00 kg and 81.00 kg and 80.10 kg

O=S(=O)([O-])[O-].[Zn+2] [zinc sulfate, reference compound]
Daily increase [2, 4]: 321 g
Final living weight [2, 4]: 16.20 kg
Final net weight ([2]; pigs): 15.76 kg
Diet ([2]; pigs): 548 g
Daily Zn retention ([2]; pigs, from net body weight and body zinc content at test beginning and end): 5.27 mg
Brain Copper content [2, 6]: 23.3
Brain Iron content [2, 6]: 80.6
Brain Zinc content [2, 6]: 47.6
Kidney Copper content [2, 6]: 40.2
Kidney Iron content [2, 6]: 179
Kidney Zinc content [2, 6]: 82.3
Liver Copper content [2, 6]: 62.5 mg/kg
Liver Zinc content [2, 6]: 300 mg/kg
Daily net increase ([2]; pigs): 313 g
